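Method: 48-hour compound exposure of cells in 96-well plates, five concentrations, linear interpolation of endpoints. Here, GI50 denotes the concentration required for 50% inhibition of growth.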 Activity calls are given as the source filed them. Rule as the data show it: active = GI50 up to about 1.1 µM and inactive = higher.
What was measured:
Assay in all cases: NCI tumour cell line growth inhibition, 48 h
[1] = system: UACC-62
[2] = system: A498
[3] = system: OVCAR-5
[4] = system: HCC 2998
[5] = system: SF-539
[6] = system: HCT-116
[7] = system: SF-268
[8] = system: MDA-MB-435
[9] = system: SR
[10] = system: HOP-62
[11] = system: SK-MEL-2
[12] = system: UACC-257
[13] = system: ACHN
[14] = system: MDA-N
[15] = system: KM12
[16] = system: IGROV-1
[17] = system: RPMI-8226
[18] = system: LOX IMVI
[19] = system: MOLT-4

Measured: GI50

Clc1ccc(-c2cn3c(nc4ccccc43)c(/C=C/c3ccco3)n2)cc1
inactive: [1] 41.8 µM | [2] 29.5 µM | [3] > 100 µM | [4] 22.2 µM | [5] 71.1 µM | [6] 41.8 µM | [7] 27.7 µM | [8] 23.2 µM | [9] 17.9 µM | [10] 42.5 µM | [11] 18.1 µM | [12] 50.6 µM | [13] 37.9 µM | [14] 72.8 µM | [15] 29.5 µM | [16] 30.5 µM | [17] 16.1 µM | [18] 33 µM

CN(C)C(=O)Nc1cc2c3c(c1)CCCN3CCC2
inactive: [1] > 10 µM | [2] 4.57 µM | [4] > 10 µM | [5] > 10 µM | [6] > 10 µM | [7] > 10 µM | [8] > 10 µM | [19] > 10 µM | [9] > 10 µM | [10] > 10 µM | [11] > 10 µM | [12] > 10 µM | [13] > 10 µM | [14] > 10 µM | [15] > 10 µM | [16] > 10 µM | [17] > 10 µM | [18] > 10 µM

CC(=O)OCC1OC(OCCCOP(=O)(OCCC#N)OCC2OC(n3cnc4c(N)ncnc43)C(OC(=O)c3ccccc3)C2OC(=O)c2ccccc2)C(OC(C)=O)C(OC(C)=O)C1OC(C)=O (stereo not drawn)
inactive: [1] > 100 µM | [2] > 100 µM | [3] > 100 µM | [4] > 100 µM | [5] > 100 µM | [6] > 100 µM | [7] > 100 µM | [8] > 100 µM | [19] > 100 µM | [9] > 100 µM | [10] > 100 µM | [11] > 100 µM | [12] > 100 µM | [13] > 100 µM | [14] > 100 µM | [15] > 100 µM | [17] > 64.1 µM | [18] > 100 µM

O=C1C=C(c2ccccc2)O/C1=C\C(=O)c1ccc(Cl)cc1
inactive: [1] 15.6 µM | [2] 80.2 µM | [3] 24.3 µM | [4] 28.3 µM | [5] 57.7 µM | [6] 16.4 µM | [7] 20 µM | [8] 15.8 µM | [19] 20.5 µM | [9] 11.3 µM | [10] > 100 µM | [12] 18.2 µM | [13] 16.1 µM | [14] 23.6 µM | [15] 34.4 µM | [16] 17.1 µM | [17] 16.7 µM | [18] 16.3 µM

COc1cc(OC)c(-n2[nH]c(=O)n(C)c2=O)c(OC)c1
inactive: [1] > 100 µM | [2] > 100 µM | [3] > 100 µM | [4] > 100 µM | [5] > 100 µM | [6] > 100 µM | [7] > 100 µM | [8] > 100 µM | [19] > 100 µM | [9] > 100 µM | [11] > 100 µM | [12] > 100 µM | [14] > 100 µM | [15] > 100 µM | [16] > 100 µM | [17] > 100 µM | [18] > 100 µM

NS(=O)(=O)c1nnc(NS(=O)(=O)c2ccc(Cl)cc2)s1
inactive: [1] > 100 µM | [2] > 100 µM | [3] > 100 µM | [4] > 100 µM | [6] > 100 µM | [7] > 100 µM | [8] > 100 µM | [19] > 100 µM | [9] > 100 µM | [10] > 100 µM | [11] > 100 µM | [12] > 100 µM | [13] > 100 µM | [14] > 100 µM | [15] > 100 µM | [17] > 100 µM | [18] > 100 µM

CCN(CC)CCCNc1nc2ccccc2[n+]([O-])n1
inactive: [1] > 100 µM | [2] > 100 µM | [3] > 100 µM | [4] > 100 µM | [5] > 100 µM | [6] > 100 µM | [7] > 100 µM | [8] > 100 µM | [19] > 100 µM | [9] > 100 µM | [11] > 100 µM | [12] > 100 µM | [13] > 100 µM | [14] > 100 µM | [15] > 100 µM | [16] > 100 µM | [17] > 100 µM

COc1ccc(/C=N/N2C(=O)c3c(N)c(C#N)c(-c4ccccc4)c(-c4ccccc4)c3C2=O)cc1
inactive: [1] > 100 µM | [2] > 100 µM | [3] > 100 µM | [4] > 100 µM | [5] > 100 µM | [6] 3.65 µM | [7] > 100 µM | [8] > 100 µM | [19] > 100 µM | [9] > 100 µM | [11] > 100 µM | [12] > 100 µM | [13] 44.7 µM | [14] > 100 µM | [15] > 100 µM | [16] > 100 µM | [17] > 100 µM | [18] > 100 µM

O=C1OCCC12CN(Cc1ccccc1)N=N2 (stereo not drawn)
inactive: [1] > 100 µM | [2] > 100 µM | [3] > 100 µM | [4] > 100 µM | [5] > 100 µM | [6] > 100 µM | [7] > 100 µM | [8] > 100 µM | [19] > 100 µM | [9] 13.2 µM | [10] > 100 µM | [11] > 100 µM | [13] 29.9 µM | [14] > 100 µM | [15] > 100 µM | [17] > 100 µM

CNC(=O)NCCN1CC2CCC(CC2)C1
inactive: [1] > 10 µM | [2] > 10 µM | [4] > 10 µM | [5] > 10 µM | [6] > 10 µM | [7] > 10 µM | [8] > 10 µM | [19] > 10 µM | [9] > 10 µM | [10] > 10 µM | [11] > 10 µM | [12] > 10 µM | [13] > 10 µM | [14] > 10 µM | [15] > 10 µM | [16] > 10 µM | [17] > 10 µM | [18] > 10 µM

O=C1c2cc(Cc3ccccc3)c(=O)c(Cc3ccccc3)cc2C(=O)c2cc(Cc3ccccc3)c(=O)c(Cc3ccccc3)cc21
inactive: [2] > 100 µM | [3] > 100 µM | [4] > 100 µM | [5] > 100 µM | [6] > 100 µM | [7] > 100 µM | [8] > 100 µM | [19] 97.3 µM | [9] > 100 µM | [10] > 100 µM | [11] > 100 µM | [12] > 100 µM | [13] > 100 µM | [14] > 100 µM | [15] > 100 µM | [16] > 100 µM | [17] > 100 µM | [18] > 100 µM
